Measurements published in patent publication US9266867B2, “Piperidinyl monocarboxylic acids as S1P1 receptor agonists” (BIOPROJET, priority 2011, dated 2016).
Counter-ions that a name gives are not always drawn.

Target: EDG-1 (Homo sapiens, UniProt P21453)
Assay: 35S-GTPγS binding assay, EDG1 (S1P1)
Type: biochemical
Set-up: expressed in transfected cells
Details: not given
Procedure: a) 35S-GTPγS Binding Assay GTP-γ-^35S binding was performed using […]15 μg protein of cell membranes suspended in 50 mM tris-HCl pH 7.5 containing 10 mM MgCl2, 100 mM NaCl and 10 μM GDP. The radioligand was 0.025 nM [^35S] GTP-γ-S and non specific binding determined in the presence of 10 μM non-radioactive GTP-γ-S. […] The maximal stimulation elicited by S1P was taken as a reference to define full or partial agonism and calculate the intrinsic activity (i.a.) of compounds.

EDG-1, sequence (P21453 whole entry): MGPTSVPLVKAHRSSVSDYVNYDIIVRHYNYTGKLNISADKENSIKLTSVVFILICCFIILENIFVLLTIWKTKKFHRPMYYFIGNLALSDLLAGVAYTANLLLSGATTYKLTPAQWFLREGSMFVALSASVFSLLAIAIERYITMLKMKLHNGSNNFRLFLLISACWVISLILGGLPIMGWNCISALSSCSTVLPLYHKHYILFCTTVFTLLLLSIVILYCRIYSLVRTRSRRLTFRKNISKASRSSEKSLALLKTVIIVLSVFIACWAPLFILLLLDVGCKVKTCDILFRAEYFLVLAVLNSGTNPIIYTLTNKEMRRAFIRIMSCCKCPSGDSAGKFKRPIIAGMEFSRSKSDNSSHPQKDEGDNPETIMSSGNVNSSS

Compound | EC50
CC(C)Cc1ccc(-c2nc(-c3ccc(CN4CCC(C(=O)O)(c5ccccc5)CC4)cc3)no2)cc1Cl [Example 23, 1-{4-[5-(3-Chloro-4-isobutylphenyl)-[1,2,4]-oxadiazol-3-yl]-benzyl}-4-phenylpiperidine-4-carboxylic acid tert-butyl amine salt] | < 10 nM

Same assay, conditions: Table 1b; read-out: EDG1 EC50

Compound | EC50
CC(C)Cc1ccc(-c2nc(-c3ccc(CN4CCC(Cc5cccc(C(F)(F)F)c5)(C(=O)O)CC4)cc3)no2)cc1Cl [Example 38, 1-{4-[5-(3-Chloro-4-isobutyl-phenyl)-[1,2,4]-oxadiazol-3-yl]-benzyl}-4-(3-trifluoromethyl-benzyl)-piperidine-4-carboxylic acid tert-butyl amine salt] | < 10 nM
COCCOCC1(C(=O)O)CCN(Cc2ccc(-c3noc(-c4ccc(CC(C)C)c(Cl)c4)n3)cc2)CC1 [Example 33, 1-{4-[5-(3-chloro-4-isobutylphenyl)-[1,2,4]-oxadiazol-3-yl]benzyl}-4-(2-methoxyethoxymethyl)piperidine-4-carboxylic acid potassium salt] | < 1 nM
CC(C)Cc1ccc(-c2nc(-c3ccc(CN4CCC(Cc5cccnc5)(C(=O)O)CC4)cc3)no2)cc1Cl [Example 42, 1-{4-[5-(3-Chloro-4-isobutyl-phenyl)-[1,2,4]-oxadiazol-3-yl]-benzyl}-4-pyridin-3-ylmethyl-piperidine-4-carboxylic acid tert-butyl amine salt] | < 1 nM
CC(C)Cc1ccc(-c2nc(-c3ccc(CN4CCC(COC(C)C)(C(=O)O)CC4)cc3)no2)cc1Cl [Example 60, 1-{4-[5-(3-Chloro-4-isobutyl-phenyl)-[1,2,4]-oxadiazol-3-yl]-benzyl}-4-isopropoxy methyl-piperidine-4-carboxylic acid tert-butyl amine salt] | < 1 nM
CC(C)Cc1ccc(-c2nc(-c3ccc(CN4CCC(Cc5ccncc5)(C(=O)O)CC4)cc3)no2)cc1Cl [Example 43, 1-{4-[5-(3-Chloro-4-isobutyl-phenyl)-[1,2,4]-oxadiazol-3-yl]-benzyl}-4-pyridin-4-ylmethyl-piperidine-4-carboxylic acid tert-butyl amine salt] | < 1 nM
C=CCC1(C(=O)O)CCN(Cc2ccc(-c3noc(-c4ccc(-c5ccccc5)c(Cl)c4)n3)cc2)CC1 [Example 17, 4-Allyl-1-{4-[5-(2-chlorobiphenyl-4-yl)-[1,2,4]-oxadiazol-3-yl]-benzyl}piperidine-4-carboxylic acid tert-butyl amine salt] | < 1 nM
O=C(O)C1(Cc2ccccn2)CCN(Cc2ccc(-c3noc(-c4ccc(C5CCCCC5)c(Cl)c4)n3)cc2)CC1 [Example 56, 1-{4-[5-(3-Chloro-4-cyclohexyl-phenyl)-[1,2,4]-oxadiazol-3-yl]-benzyl}-4-pyridin-2-ylmethyl-piperidine-4-carboxylic acid tert-butyl amine salt] | < 1 nM
CC(C)Cc1ccc(-c2nc(-c3ccc(CN4CCC(CCCN5CCCCC5)(C(=O)O)CC4)cc3)no2)cc1Cl [Example 65, 1-{4-[5-(3-Chloro-4-isobutyl-phenyl)-[1,2,4]-oxadiazol-3-yl]-benzyl}-4-(3-piperidin-1-yl-propyl)-piperidine-4-carboxylic acid tert-butyl amine salt] | < 10 nM
CC(C)Cc1ccc(-c2nc(-c3ccc(CN4CCC(CCOc5ccccc5)(C(=O)O)CC4)cc3)no2)cc1Cl [Example 34, 1-{4-[5-(3-Chloro-4-isobutyl-phenyl)-[1,2,4]-oxadiazol-3-yl]-benzyl}-4-(2-phenoxy-ethyl)-piperidine-4-carboxylic acid tert-butyl amine salt] | < 1 nM
CC(C)Cc1ccc(-c2nc(-c3ccc(CN4CCC(Cc5ccccn5)(C(=O)O)CC4)cc3)no2)cc1Cl [Example 40, 1-{4-[5-(3-Chloro-4-isobutyl-phenyl)-[1,2,4]-oxadiazol-3-yl]-benzyl}-4-pyridin-2-ylmethyl-piperidine-4-carboxylic acid tert-butyl amine salt] | < 1 nM
COCCCCC1(C(=O)O)CCN(Cc2ccc(-c3noc(-c4ccc(CC(C)C)c(Cl)c4)n3)cc2)CC1 [Example 32, 1-{4-[5-(3-Chloro-4-isobutylphenyl-[1,2,4]-oxadiazol-3-yl]benzyl}-4-(4-methoxybutyl)piperidine-4-carboxylic acid tert-butylamine salt] | < 1 nM
CC(C)Oc1ccc(-c2nc(-c3ccc(CN4CCC(C)(C(=O)O)CC4)cc3)no2)cc1Cl [Example 44, 1-{4-[5-(3-Chloro-4-isopropoxy-phenyl)-[1,2,4]-oxadiazol-3-yl]-benzyl}-4-methyl-piperidine-4-carboxylic acid tert-butyl amine salt] | < 10 nM
CCCC1(C(=O)O)CCN(Cc2ccc(-c3noc(-c4ccc(-c5ccccc5)c(Cl)c4)n3)cc2)CC1 [Example 18, 1-{4-[5-(2-Chlorobiphenyl-4-yl)-[1,2,4]-oxadiazol-3-yl]-benzyl}-4-propylpiperidine-4-carboxylic acid tert-butyl amine salt] | < 1 nM
COc1ccc(CC2(C(=O)O)CCN(Cc3ccc(-c4noc(-c5ccc(C6CCCCC6)c(Cl)c5)n4)cc3)CC2)cc1 [Example 53, 1-{4-[5-(3-Chloro-4-cyclohexylphenyl)-[1,2,4]-oxadiazol-3-yl]-benzyl}-4-(4-methoxy-benzyl)-piperidine-4-carboxylic acid tert-butyl amine salt] | < 1 nM
O=C(O)C1(Cc2ccccn2)CCN(Cc2ccc(-c3noc(-c4ccc(-c5ccccc5)c(Cl)c4)n3)cc2)CC1 [Example 50, 1-{4-[5-(2-Chloro-biphenyl-4-yl)-[1,2,4]-oxadiazol-3-yl]-benzyl}-4-pyridin-2-ylmethyl-piperidine-4-carboxylic acid tert-butyl amine salt] | < 1 nM
O=C(O)C1(COCc2ccccc2)CCN(Cc2ccc(-c3noc(-c4ccc(-c5ccccc5)c(Cl)c4)n3)cc2)CC1 [Example 20, 4-Benzyloxymethyl-1-{4-[5-(2-chlorobiphenyl-4-yl)-[1,2,4]-oxadiazol-3-yl]-benzyl}piperidine-4-carboxylic acid tert-butyl amine salt] | < 1 nM
CCC1(C(=O)O)CCN(Cc2ccc(-c3noc(-c4ccc(C5CCCCC5)c(Cl)c4)n3)cc2)CC1 [Example 54, 1-{4-[5-(3-Chloro-4-cyclohexylphenyl)-[1,2,4]-oxadiazol-3-yl]-benzyl}-4-ethyl-piperidine-4-carboxylic acid tert-butyl amine salt] | < 1 nM
CC(C)Cc1ccc(-c2nc(-c3ccc(CN4CCC(CC(C)C)(C(=O)O)CC4)cc3)no2)cc1Cl [Example 36, 1-{4-[5-(3-Chloro-4-isobutyl-phenyl)-[1,2,4]-oxadiazol-3-yl]-benzyl}-4-isobutyl-piperidine-4-carboxylic acid tert-butyl amine salt] | < 10 nM
CCOCCOCC1(C(=O)O)CCN(Cc2ccc(-c3noc(-c4ccc(CC(C)C)c(Cl)c4)n3)cc2)CC1 [Example 59, 1-{4-[5-(3-Chloro-4-isobutyl-phenyl)-[1,2,4]-oxadiazol-3-yl]-benzyl}-4-(2-ethoxy-ethoxymethyl)-piperidine-4-carboxylic acid tert-butyl amine salt] | < 1 nM
O=C(O)C1(Cc2cccnc2)CCN(Cc2ccc(-c3noc(-c4ccc(-c5ccccc5)c(Cl)c4)n3)cc2)CC1 [Example 58, 1-{4-[5-(2-Chloro-biphenyl-4-yl)-[1,2,4]-oxadiazol-3-yl]-benzyl}-4-pyridin-3-ylmethyl-piperidine-4-carboxylic acid tert-butyl amine salt] | < 1 nM
CC1(C(=O)O)CCN(Cc2ccc(-c3noc(-c4ccc(C(C)(C)C)c(Cl)c4)n3)cc2)CC1 [Example 45, 1-{4-[5-(4-tert-Butyl-3-chloro-phenyl)-[1,2,4]-oxadiazol-3-yl]-benzyl}-4-methyl-piperidine-4-carboxylic acid tert-butyl amine salt] | < 10 nM
C=CCC1(C(=O)O)CCN(Cc2ccc(-c3noc(-c4ccc(OC(C)C)c(Cl)c4)n3)cc2)CC1 [Example 49, 4-Allyl-1-{4-[5-(3-chloro-4-isopropoxy-phenyl)-[1,2,4]-oxadiazol-3-yl]-benzyl}-piperidine-4-carboxylic acid tert-butyl amine salt] | < 1 nM
CC(C)Cc1ccc(-c2nc(-c3ccc(CN4CCC(Cc5ccco5)(C(=O)O)CC4)cc3)no2)cc1Cl [Example 39, 1-{4-[5-(3-Chloro-4-isobutyl-phenyl)-[1,2,4]-oxadiazol-3-yl]-benzyl}-4-furan-2-ylmethyl-piperidine-4-carboxylic acid tert-butyl amine salt] | < 10 nM
CC(C)Cc1ccc(-c2nc(-c3ccc(CN4CCC(CCN5CCOCC5)(C(=O)O)CC4)cc3)no2)cc1Cl [Example 64, 1-{4-[5-(3-Chloro-4-isobutyl-phenyl)-[1,2,4]-oxadiazol-3-yl]-benzyl}-4-(2-morpholin-4-yl-ethyl)-piperidine-4-carboxylic acid] | < 10 nM
COc1ccc(CC2(C(=O)O)CCN(Cc3ccc(-c4noc(-c5ccc(CC(C)C)c(Cl)c5)n4)cc3)CC2)cc1 [Example 27, 1-{4-[5-(3-Chloro-4-isobutyl-phenyl)-[1,2,4]-oxadiazol-3-yl]-benzyl}-4-(4-methoxy-benzyl)-piperidine-4-carboxylic acid tert-butyl amine salt] | < 1 nM
CC(C)Cc1ccc(-c2nc(-c3ccc(CN4CCC(Cc5c(F)cccc5F)(C(=O)O)CC4)cc3)no2)cc1Cl [Example 35, 1-{4-[5-(3-Chloro-4-isobutyl-phenyl)-[1,2,4]-oxadiazol-3-yl]-benzyl}-4-(2,6-difluoro-benzyl)-piperidine-4-carboxylic acid tert-butyl amine salt] | < 1 nM
O=C(O)C1(CO)CCN(Cc2ccc(-c3noc(-c4ccc(-c5ccccc5)c(Cl)c4)n3)cc2)CC1 [Example 22, 1-{4-[5-(2-Chlorobiphenyl-4-yl)-[1,2,4]-oxadiazol-3-yl]-benzyl}-4-hydroxymethylpiperidine-4-carboxylic acid tert-butyl amine salt] | < 1 nM
